The experiment addresses T1, human natriuretic peptide receptor 2 (hNPR2) (Homo sapiens, UniProt P20594).
T1 construct: expressed in transfected cells; host or cells: HEK293 (ATCC CRL-1573), clone 35, co-transfected with pGloSensor-42F
T1 sequence (P20594 23-1047): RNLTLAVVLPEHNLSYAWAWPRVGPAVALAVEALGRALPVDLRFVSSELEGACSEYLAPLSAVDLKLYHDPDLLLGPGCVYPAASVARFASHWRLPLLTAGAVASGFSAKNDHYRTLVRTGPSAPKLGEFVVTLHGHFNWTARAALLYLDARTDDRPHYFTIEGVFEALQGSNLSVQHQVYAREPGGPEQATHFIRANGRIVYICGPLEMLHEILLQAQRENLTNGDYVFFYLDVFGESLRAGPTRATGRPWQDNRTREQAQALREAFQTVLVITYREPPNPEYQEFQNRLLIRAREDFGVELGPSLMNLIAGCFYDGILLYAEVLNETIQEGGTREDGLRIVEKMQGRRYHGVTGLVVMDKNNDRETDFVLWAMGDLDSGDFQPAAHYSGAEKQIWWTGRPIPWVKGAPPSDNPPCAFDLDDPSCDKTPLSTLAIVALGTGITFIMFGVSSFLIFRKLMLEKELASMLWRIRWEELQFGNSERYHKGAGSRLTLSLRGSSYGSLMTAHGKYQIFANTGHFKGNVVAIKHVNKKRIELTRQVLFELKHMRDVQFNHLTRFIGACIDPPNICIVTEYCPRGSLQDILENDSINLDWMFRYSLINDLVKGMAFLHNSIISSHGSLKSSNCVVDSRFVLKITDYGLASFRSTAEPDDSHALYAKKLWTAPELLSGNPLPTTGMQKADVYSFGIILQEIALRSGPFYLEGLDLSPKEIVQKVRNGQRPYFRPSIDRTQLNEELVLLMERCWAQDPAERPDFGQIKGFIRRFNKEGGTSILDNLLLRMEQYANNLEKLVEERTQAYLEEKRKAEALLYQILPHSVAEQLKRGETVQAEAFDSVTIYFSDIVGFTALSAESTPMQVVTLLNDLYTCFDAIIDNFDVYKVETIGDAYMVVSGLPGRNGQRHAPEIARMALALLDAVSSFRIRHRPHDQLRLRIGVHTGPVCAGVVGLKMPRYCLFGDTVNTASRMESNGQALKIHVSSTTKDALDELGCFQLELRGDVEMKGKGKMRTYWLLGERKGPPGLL
As to the kind of experiment: In vitro hNPR2 activity assay (cGMP GloSensor reporter, HEK293). It is filed as cell-based. Particulars: for hNPR2 0% HSA. [EC50% rel CNP]: potency relative to CNP22 (0065). The procedure, abridged:
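Potency is the EC50 from a four-parameter logistic fit, also expressed relative to the in-plate CNP22 control (×100), with at least two replicates. Compounds (ten concentrations, […], HSA-free diluent with 1% OVA, 0.01% Tween20) were incubated 30 min at 37 °C on HEK293 cells co-expressing hNPR2 and a GloSensor cGMP luciferase. Luminescence detected with Bright-Glo.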

Starred links: 1 amine or outer side, 2 acyl side, 3 side chain; linkers in the order of their positions; H or OH if unused. Positions of bridges follow the written chain, without caps; N, C: chain ends. Residues, ends and D or L forms follow the SMILES beside them. *: point of attachment. C20 diacid = O=C(O)CCCCCCCCCCCCCCCCCCC(=O)*; C18 diacid = O=C(O)CCCCCCCCCCCCCCCCC(=O)*; γGlu = O=C(O)[C@H](CCC(=O)[*:2])N[*:1]; AEEA = NCCOCCOCC(=O)O

As for `CC[C@H](C)[C@@H]1NC(=O)[C@H](CCCNC(=N)N)NC(=O)[C@H](CC(=O)O)NC(=O)[C@H](CC(C)C)NC(=O)[C@@H]2CCCN2C(=O)[C@H](CC(C)C)NC(=O)CNC(=O)[C@H](Cc2ccccc2)NC(=O)[C@@H](NC(=O)CNC(=O)[C@H](CCC(N)=O)NC(=O)[C@H](CO)NC(=O)[C@H](CO)NC(=O)CNC(=O)[C@H](CCCCN)NC(=O)[C@H](CCCCN)NC(=O)[C@H](CCC(N)=O)NC(=O)[C@H](C)NC(=O)CNC(=O)[C@H](CCCCN)NC(=O)[C@H](Cc2ccc(O)cc2)NC(=O)[C@H](Cc2c[nH]cn2)NC(=O)[C@H](CCCNC(=N)N)NC(=O)[C@H](C)NC(=O)[C@H](CCC(N)=O)NC(=O)[C@@H]2CCCN2C(=O)[C@H](Cc2c[nH]cn2)NC(=O)[C@H](CCC(=O)O)NC(=O)[C@H](CCC(N)=O)NC(=O)COCCOCCNC(=O)COCCOCCNC(=O)CC[C@H](NC(=O)CC[C@H](NC(=O)CC[C@H](NC(=O)CC[C@H](NC(=O)CCCCCCCCCCCCCCCCC(=O)O)C(=O)O)C(=O)O)C(=O)O)C(=O)O)CSSC[C@@H](C(=O)O)NC(=O)CNC(=O)[C@H](CC(C)C)NC(=O)CNC(=O)[C@H](CO)NC(=O)[C@H](CC(C)C)NC(=O)[C@H](CO)NC(=O)CNC1=O` [compound 1398] ({C18 diacid-γGlu-γGlu-γGlu-γGlu-AEEA-AEEA}-QEHPQARHYKGAQKKGSSQGCFGLPLDRIGSLSGLGC-OH; disulfide 21-37), the “hNPR2 0% HSA. [EC50% rel CNP]” value is on record as 55.6%.
The same measure, in the same setting: the value for `CC[C@H](C)[C@@H]1NC(=O)[C@H](CCCNC(=N)N)NC(=O)[C@H](CC(=O)O)NC(=O)[C@H](CC(C)C)NC(=O)[C@@H]2CCCN2C(=O)[C@H](CC(C)C)NC(=O)CNC(=O)[C@H](Cc2ccccc2)NC(=O)[C@@H](NC(=O)CNC(=O)[C@H](CCC(N)=O)NC(=O)[C@H](CO)NC(=O)[C@H](CO)NC(=O)CNC(=O)[C@H](CCCCN)NC(=O)[C@H](CCCCN)NC(=O)[C@H](CCC(N)=O)NC(=O)[C@H](C)NC(=O)CNC(=O)[C@H](CCCCN)NC(=O)[C@H](Cc2ccc(O)cc2)NC(=O)[C@H](Cc2c[nH]cn2)NC(=O)[C@H](CCCNC(=N)N)NC(=O)[C@H](C)NC(=O)[C@H](CCC(N)=O)NC(=O)[C@@H]2CCCN2C(=O)[C@H](Cc2c[nH]cn2)NC(=O)[C@H](CCC(=O)O)NC(=O)[C@H](CCC(N)=O)NC(=O)COCCOCCNC(=O)COCCOCCNC(=O)CC[C@H](NC(=O)CC[C@H](NC(=O)CC[C@H](NC(=O)CC[C@H](NC(=O)CCCCCCCCCCCCCCCCCCC(=O)O)C(=O)O)C(=O)O)C(=O)O)C(=O)O)CSSC[C@@H](C(=O)O)NC(=O)CNC(=O)[C@H](CC(C)C)NC(=O)CNC(=O)[C@H](CO)NC(=O)[C@H](CC(C)C)NC(=O)[C@H](CO)NC(=O)CNC1=O` [compound 1399] ({C20 diacid-γGlu-γGlu-γGlu-γGlu-AEEA-AEEA}-QEHPQARHYKGAQKKGSSQGCFGLPLDRIGSLSGLGC-OH; disulfide 21-37) was 137.0%; that for `CC[C@H](C)[C@@H]1NC(=O)[C@H](CCCNC(=N)N)NC(=O)[C@H](CC(=O)O)NC(=O)[C@H](CC(C)C)NC(=O)[C@@H]2CCCN2C(=O)[C@H](CC(C)C)NC(=O)CNC(=O)[C@H](Cc2ccccc2)NC(=O)[C@@H](NC(=O)CNC(=O)[C@H](CCC(N)=O)NC(=O)[C@H](CO)NC(=O)CNC(=O)CNC(=O)[C@H](CCCCN)NC(=O)[C@H](CCCCN)NC(=O)[C@H](CCC(N)=O)NC(=O)[C@H](C)NC(=O)CNC(=O)[C@H](CCCCN)NC(=O)[C@H](Cc2ccc(O)cc2)NC(=O)[C@H](CCCCN)NC(=O)[C@H](Cc2c[nH]cn2)NC(=O)[C@H](C)NC(=O)[C@H](CCC(N)=O)NC(=O)[C@@H]2CCCN2C(=O)[C@H](Cc2c[nH]cn2)NC(=O)[C@H](CCC(=O)O)NC(=O)[C@H](CCC(N)=O)NC(=O)COCCOCCNC(=O)COCCOCCNC(=O)CC[C@H](NC(=O)CC[C@H](NC(=O)CC[C@H](NC(=O)CC[C@H](NC(=O)CCCCCCCCCCCCCCCCC(=O)O)C(=O)O)C(=O)O)C(=O)O)C(=O)O)CSSC[C@@H](C(=O)O)NC(=O)CNC(=O)[C@H](CC(C)C)NC(=O)CNC(=O)[C@H](CO)NC(=O)[C@H](CC(C)C)NC(=O)[C@H](CO)NC(=O)CNC1=O` [compound 1400] ({C18 diacid-γGlu-γGlu-γGlu-γGlu-AEEA-AEEA}-QEHPQAHKYKGAQKKGGSQGCFGLPLDRIGSLSGLGC-OH; disulfide 21-37) was 85.3%.
`CC[C@H](C)[C@@H]1NC(=O)[C@H](CCCNC(=N)N)NC(=O)[C@H](CC(=O)O)NC(=O)[C@H](CC(C)C)NC(=O)[C@H](CCCCN)NC(=O)[C@H](CC(C)C)NC(=O)CNC(=O)[C@H](Cc2ccccc2)NC(=O)[C@@H](NC(=O)CNC(=O)[C@H](CCCCN)NC(=O)[C@H](CO)NC(=O)[C@H](CC(C)C)NC(=O)CNC(=O)[C@H](CCCCN)NC(=O)[C@H](CCCCN)NC(=O)[C@H](CCC(N)=O)NC(=O)[C@H](C)NC(=O)CNC(=O)[C@H](CCCCN)NC(=O)[C@H](Cc2ccc(O)cc2)NC(=O)[C@H](CCCCN)NC(=O)[C@H](CCCNC(=N)N)NC(=O)[C@H](C)NC(=O)[C@H](CCC(N)=O)NC(=O)[C@@H]2CCCN2C(=O)[C@H](Cc2c[nH]cn2)NC(=O)[C@H](CCC(=O)O)NC(=O)[C@H](CCC(N)=O)NC(=O)COCCOCCNC(=O)COCCOCCNC(=O)CC[C@H](NC(=O)CC[C@H](NC(=O)CC[C@H](NC(=O)CC[C@H](NC(=O)CC[C@H](NC(=O)CC[C@H](NC(=O)CC[C@H](NC(=O)CC[C@H](NC(=O)CCCCCCCCCCCCCCCCC(=O)O)C(=O)O)C(=O)O)C(=O)O)C(=O)O)C(=O)O)C(=O)O)C(=O)O)C(=O)O)CSSC[C@@H](C(=O)O)NC(=O)CNC(=O)[C@H](CC(C)C)NC(=O)CNC(=O)[C@H](CO)NC(=O)[C@H](CC(C)C)NC(=O)[C@H](CO)NC(=O)CNC1=O` [compound 1401]: the “hNPR2 0% HSA. [EC50% rel CNP]” value is 19.7%. For the setting “0% HSA, HEK293-hNPR2/GloSensor cells”, it took 0.56 nM to reach a half-maximal effect (EC50).
`CC[C@H](C)[C@@H]1NC(=O)[C@H](CCCNC(=N)N)NC(=O)[C@H](CC(=O)O)NC(=O)[C@H](CC(C)C)NC(=O)[C@@H]2CCCN2C(=O)[C@H](CC(C)C)NC(=O)CNC(=O)[C@H](Cc2ccccc2)NC(=O)[C@@H](NC(=O)CNC(=O)[C@H](CCC(N)=O)NC(=O)[C@H](CO)NC(=O)CNC(=O)CNC(=O)[C@H](CCCCN)NC(=O)[C@H](CCCCN)NC(=O)[C@H](CCC(N)=O)NC(=O)[C@H](C)NC(=O)CNC(=O)[C@H](CCCCN)NC(=O)[C@H](Cc2ccc(O)cc2)NC(=O)[C@H](CCCCN)NC(=O)[C@H](CCCNC(=N)N)NC(=O)[C@H](C)NC(=O)[C@H](CCC(N)=O)NC(=O)[C@@H]2CCCN2C(=O)[C@H](Cc2c[nH]cn2)NC(=O)[C@H](CCC(=O)O)NC(=O)[C@H](CCC(N)=O)NC(=O)COCCOCCNC(=O)COCCOCCNC(=O)CC[C@H](NC(=O)CC[C@H](NC(=O)CC[C@H](NC(=O)CC[C@H](NC(=O)CC[C@H](NC(=O)CC[C@H](NC(=O)CCCCCCCCCCCCCCCCC(=O)O)C(=O)O)C(=O)O)C(=O)O)C(=O)O)C(=O)O)C(=O)O)CSSC[C@@H](C(=O)O)NC(=O)CNC(=O)[C@H](CC(C)C)NC(=O)CNC(=O)[C@H](CO)NC(=O)[C@H](CC(C)C)NC(=O)[C@H](CO)NC(=O)CNC1=O` [compound 1403] ({C18 diacid-γGlu-γGlu-γGlu-γGlu-γGlu-γGlu-AEEA-AEEA}-QEHPQARKYKGAQKKGGSQGCFGLPLDRIGSLSGLGC-OH; disulfide 21-37): the “hNPR2 0% HSA. [EC50% rel CNP]” value was determined as 87.1%.
On the same count and under the same terms, the value for `CC[C@H](C)[C@@H]1NC(=O)[C@H](CCCNC(=N)N)NC(=O)[C@H](CC(=O)O)NC(=O)[C@H](CC(C)C)NC(=O)[C@@H]2CCCN2C(=O)[C@H](CC(C)C)NC(=O)CNC(=O)[C@H](Cc2ccccc2)NC(=O)[C@@H](NC(=O)CNC(=O)[C@H](CCCCN)NC(=O)[C@H](CO)NC(=O)[C@@H](NC(=O)CNC(=O)[C@@H](NC(=O)[C@H](CCCCN)NC(=O)[C@H](CCC(N)=O)NC(=O)[C@H](C)NC(=O)CNC(=O)[C@H](Cc2c[nH]cn2)NC(=O)[C@H](Cc2ccc(O)cc2)NC(=O)[C@H](CCCCN)NC(=O)[C@H](CCCNC(=N)N)NC(=O)[C@H](C)NC(=O)COCCOCCNC(=O)COCCOCCNC(=O)CC[C@H](NC(=O)CC[C@H](NC(=O)CC[C@H](NC(=O)CCCCCCCCCCCCCCCCC(=O)O)C(=O)O)C(=O)O)C(=O)O)[C@@H](C)O)C(C)C)CSSC[C@@H](C(=O)O)NC(=O)CNC(=O)[C@H](CC(C)C)NC(=O)CNC(=O)[C@H](CO)NC(=O)[C@H](CC(C)C)NC(=O)[C@H](CO)NC(=O)CNC1=O` [compound 1423] ({C18 diacid-γGlu-γGlu-γGlu-AEEA-AEEA}-ARKYHGAQKTGVSKGCFGLPLDRIGSLSGLGC-OH; disulfide 16-32) was 37.7%.

The EC50 is the concentration giving half of the maximal effect.

The values are drawn from patent US20240209028A1, “CNP COMPOUNDS” (priority 2022, published 2024).
